Experiments:
[1] = test system: NRF2; experiment: Western Blot validation of NRF2 nuclear accumulation in HMVEC-L; format: cell-based, human; details: ASEA 1% at 30, 60, 120 min, H2O2 30 min
Method: (§1) 8. A Western Blot analysis was done on extra-nuclear and intra-nuclear fractions, separated by differential centrifugation, of serum starved HMVEC-L cell cultures exposed to <1% of a composition of the invention compared with a positive hydrogen peroxide control to determine phosphorylation events (oxidant action) in the extra-nuclear fraction and NRF2 (antioxidant transcription) in the intra-nuclear fraction at 0, 30, 60, 90 and 120 min intervals.
(§2) Experimental Methods for Western Blot Validation of NRF2 Nuclear Accumulation: HMVEC-L were treated with 1% of a composition of the invention, nuclear extracts were separated through centrifugal differentiation from the extra-nuclear cytosol at 30, 60 and 120 min and subjected to Western Blot analysis for NRF2. In the Western blot experiment the extra-nuclear fraction was probed for phosphorylated proteins using a combination of anti-phospho serine, threonine and tyrosine antibodies. Virtually all cellular processes are regulated by posttranslational modifications and protein phosphorylation is a prevalent mechanism. […]

[2] = test system: phosphorylated proteins (extra-nuclear fraction); experiment: Western Blot of protein phosphorylation in extra-nuclear fraction of HMVEC-L; format: cell-based, human; details: composition 1%, H2O2 positive control
Method: as §1, §2

`OO` [H2O2, Hydrogen peroxide] was tested, and the “NRF2 levels in nuclear extracts (Western Blot)” value [1] was “did not increase” and the “phosphorylation of extra-nuclear protein (Western Blot)” value [2] was “marked increase”.

Source: patent publication US20150246071A1, “TREATMENT COMPOSITIONS” (REOXCYN DISCOVERIES GROUP, INC., priority 2012, published 2015)
